Test results: patent US11111245B2, “Derivatives of N-cycloalkyl/heterocycloalkyl-4-(imidazo[1,2-a]pyridine)pyrimidin-2-amine as therapeutic agents” (Aucentra Therapeutics Pty Ltd, priority 2017, dated 2021)

Columns and labels:
[1] = tested on: MDA-MB-231; assay: MTT cell viability assay, MDA-MB-231 breast cancer cell line (72 h); format: cell-based; conditions: Homo sapiens, MDA-MB-231, 72 h, read-out: 72 h Antiproliferative activity, GI50 (μmol/L) ± SD
Procedure: (§1) Compounds from Example 1 were subjected to a standard MTT (3-(4,5-dimethylthiazol-2-yl)-2,5-diphenyltetrazolium bromide) and resazurin assays on solid tumour cell lines and leukemia cell lines, respectively, as previously reported (Wang S et al., J Med Chem 47:1662-1675, 2004 and Diab S. et al. CheMedChem 9:962-972, 2014). Compound concentrations required to inhibit 50% of cell growth (GI50) were calculated using non-linear regression analysis.

[2] = tested on: MCF-7; assay: MTT cell viability assay, MCF-7 breast cancer cell line (72 h); format: cell-based; conditions: Homo sapiens, MCF7, MCF-7, 72 h, read-out: 72 h Antiproliferative activity, GI50 (μmol/L) ± SD
Procedure: as §1

[3] = molecular target: CDK4/D1 (Homo sapiens, UniProt P11802); assay: ADP Glo Kinase assay CDK4/D1; format: biochemical; conditions: CDK4D1; for Ki: read-out: CDK inhibition, Ki (μM) CDK4D1
Outline: (§2)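 CDK4/D1 and CDK6/D3 were run in […] Tris pH 7.5, 20 mM MgCl2, 0.4 mM DTT, 0.1 mg/ml BSA with RB-CTF substrate; CDK9/T1 used RBER-IRStide. ATP-started reactions ran 40 min at 37° C, with ADP Glo luminescence read-out. IC50 came from 4-parameter fits; Ki from Km (ATP) and IC50.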

[4] = tested on: leukemia cell lines; assay: Resazurin cell viability assay on leukemia cell lines (72 h growth inhibition, GI50); format: cell-based; conditions: Homo sapiens, MV4-11 cells
Outline: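 Solid tumour cells: MTT. Leukaemia cells: resazurin. GI50 fitted by non-linear regression.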

[5] = tested on: A2780; assay: MTT cell viability assay, A2780 ovarian cancer cell line (72 h); format: cell-based; conditions: Homo sapiens, A2780, 72 h, read-out: 72 h Antiproliferative activity, GI50 (μmol/L) ± SD
Procedure: as §1

[6] = tested on: MDA-MB-453; assay: MTT cell viability assay, MDA-MB-453 breast cancer cell line (72 h); format: cell-based; conditions: Homo sapiens, MDA-MB-453, 72 h, read-out: 72 h Antiproliferative activity, GI50 (μmol/L) ± SD
Procedure: as §1

[7] = molecular target: T1, CDKs and other kinases (Homo sapiens, UniProt P50613); assay: Radiometric kinase assay (Eurofins Pharma Discovery or Reaction Biology Corporation Kinase Profiler); format: biochemical; conditions: CDK7H; for Ki: read-out: CDK inhibition, Ki (μM) CDK7H
T1 construct: other: CDK7H; residual activity (%) at 10 μM CDK7H; compound at 10 μM
Outline: (§3)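 Other CDKs and further kinases were profiled externally by radiometric assay. In-house ADP Glo assays covered CDK4/D1 and CDK6/D3 (RB-CTF substrate, pH 7.5 Tris buffer with MgCl2, DTT, BSA) and CDK9/T1 (RBER-IRStide substrate), 40 min at 37° C.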

[8] = molecular target: T2, CDKs and other kinases (Homo sapiens, UniProt P24941); assay: as above; format: biochemical; conditions: CDK2A; for Ki: read-out: CDK inhibition, Ki (μM) CDK2A
T2 construct: other: CDK2A; residual activity (%) at 10 μM CDK2A; compound at 10 μM
Outline: as §3

[9] = molecular target: T3, CDKs and other kinases (Homo sapiens, UniProt P06493); assay: as above; format: biochemical; conditions: CDK1B; for Ki: read-out: CDK inhibition, Ki (μM) CDK1B
T3 construct: other: CDK1B; residual activity (%) at 10 μM CDK1B; compound at 10 μM
Outline: as §3

[10] = tested on: NB4; assay: Resazurin cell viability assay, NB4 leukaemia cell line (72 h); format: cell-based; conditions: Homo sapiens, NB-4, NB4, 72 h, read-out: 72 h Antiproliferative activity, GI50 (μmol/L) ± SD
Procedure: as §1

[11] = tested on: PC3; assay: MTT cell viability assay, PC3 prostate cancer cell line (72 h); format: cell-based; conditions: Homo sapiens, PC-3, PC3, 72 h, read-out: 72 h Antiproliferative activity, GI50 (μmol/L) ± SD
Procedure: as §1

[12] = tested on: T47D; assay: MTT cell viability assay, T47D breast cancer cell line (72 h); format: cell-based; conditions: Homo sapiens, read-out: 72 h Antiproliferative activity, GI50 (μmol/L) ± SD
Procedure: as §1

[13] = tested on: MDA-MB-468; assay: MTT cell viability assay, MDA-MB-468 breast cancer cell line (72 h); format: cell-based; conditions: Homo sapiens, MDA-MB-468, 72 h, read-out: 72 h Antiproliferative activity, GI50 (μmol/L) ± SD
Procedure: as §1

[14] = molecular target: CDK9/T1 (Homo sapiens, UniProt P50750); assay: ADP Glo Kinase assay CDK9/T1; format: biochemical; conditions: CDK9T1; read-out: CDK inhibition, Ki (μM) CDK9T1
Outline: as §2

[15] = molecular target: CDK6/D3 (Homo sapiens, UniProt Q00534); assay: ADP Glo Kinase assay CDK6/D3; format: biochemical; conditions: CDK6D3; for Ki: read-out: CDK inhibition, Ki (μM) CDK6D3
Outline: as §2

[16] = tested on: MOLM13; assay: Resazurin cell viability assay, MOLM13 leukaemia cell line (72 h); format: cell-based; conditions: Homo sapiens, MOLM-13, MOLM13, 72 h, read-out: 72 h Antiproliferative activity, GI50 (μmol/L) ± SD
Procedure: as §1

[17] = tested on: U937; assay: Resazurin cell viability assay, U937 leukaemia cell line (72 h); format: cell-based; conditions: Homo sapiens, U-937, U937, 72 h, read-out: 72 h Antiproliferative activity, GI50 (μmol/L) ± SD
Procedure: as §1

[18] = tested on: LNCap; assay: MTT cell viability assay, LNCap prostate cancer cell line (72 h); format: cell-based; conditions: Homo sapiens, read-out: 72 h Antiproliferative activity, GI50 (μmol/L) ± SD
Procedure: as §1

T1 sequence (P50613 whole entry): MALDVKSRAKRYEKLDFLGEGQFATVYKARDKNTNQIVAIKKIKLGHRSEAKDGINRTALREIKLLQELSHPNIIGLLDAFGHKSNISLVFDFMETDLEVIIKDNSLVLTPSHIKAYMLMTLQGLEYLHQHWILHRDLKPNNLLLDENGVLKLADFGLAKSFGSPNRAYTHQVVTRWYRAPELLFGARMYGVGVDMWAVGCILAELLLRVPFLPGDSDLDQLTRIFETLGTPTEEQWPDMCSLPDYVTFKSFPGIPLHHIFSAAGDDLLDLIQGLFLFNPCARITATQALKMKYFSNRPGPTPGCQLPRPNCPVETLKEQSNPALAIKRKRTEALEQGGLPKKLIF
Chain of CDK9/T1 (P50750 whole entry): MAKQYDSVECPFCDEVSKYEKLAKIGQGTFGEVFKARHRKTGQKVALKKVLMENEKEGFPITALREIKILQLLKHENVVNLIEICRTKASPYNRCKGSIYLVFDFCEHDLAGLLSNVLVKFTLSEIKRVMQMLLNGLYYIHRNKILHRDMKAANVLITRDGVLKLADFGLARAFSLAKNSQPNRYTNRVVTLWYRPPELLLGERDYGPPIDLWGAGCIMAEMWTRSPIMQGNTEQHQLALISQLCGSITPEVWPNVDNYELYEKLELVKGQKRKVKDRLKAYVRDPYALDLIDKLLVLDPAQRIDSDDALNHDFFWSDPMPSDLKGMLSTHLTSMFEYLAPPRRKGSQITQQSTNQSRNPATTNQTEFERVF
Chain of CDK9/T1 (O60563 whole entry partner): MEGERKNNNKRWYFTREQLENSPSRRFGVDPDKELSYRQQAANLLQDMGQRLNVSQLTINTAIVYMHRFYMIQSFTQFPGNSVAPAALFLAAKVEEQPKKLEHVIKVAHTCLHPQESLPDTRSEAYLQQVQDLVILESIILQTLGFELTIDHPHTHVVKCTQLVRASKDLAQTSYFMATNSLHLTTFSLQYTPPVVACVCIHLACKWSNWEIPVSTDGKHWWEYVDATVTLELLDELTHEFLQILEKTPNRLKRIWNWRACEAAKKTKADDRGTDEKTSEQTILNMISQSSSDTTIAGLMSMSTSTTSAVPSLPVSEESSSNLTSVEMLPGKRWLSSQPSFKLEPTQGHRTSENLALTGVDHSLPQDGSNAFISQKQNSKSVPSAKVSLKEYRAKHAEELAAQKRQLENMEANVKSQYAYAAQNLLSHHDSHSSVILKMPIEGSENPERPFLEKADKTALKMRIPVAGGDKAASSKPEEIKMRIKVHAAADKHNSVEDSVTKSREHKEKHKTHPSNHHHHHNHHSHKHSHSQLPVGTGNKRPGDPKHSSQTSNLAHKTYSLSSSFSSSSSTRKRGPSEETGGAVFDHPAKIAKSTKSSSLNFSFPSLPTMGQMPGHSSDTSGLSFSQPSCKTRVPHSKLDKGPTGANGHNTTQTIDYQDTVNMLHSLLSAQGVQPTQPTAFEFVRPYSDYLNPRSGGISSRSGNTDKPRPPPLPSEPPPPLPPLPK
Chain of CDK4/D1 (P11802 whole entry): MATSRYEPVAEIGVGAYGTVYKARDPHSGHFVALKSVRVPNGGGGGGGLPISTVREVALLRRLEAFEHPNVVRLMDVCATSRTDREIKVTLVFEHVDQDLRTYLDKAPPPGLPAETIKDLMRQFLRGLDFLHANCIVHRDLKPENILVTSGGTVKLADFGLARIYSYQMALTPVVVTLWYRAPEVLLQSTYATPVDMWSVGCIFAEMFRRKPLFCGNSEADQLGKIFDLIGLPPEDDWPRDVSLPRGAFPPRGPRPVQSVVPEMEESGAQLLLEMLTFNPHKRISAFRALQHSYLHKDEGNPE
Chain of CDK4/D1 (P24385 whole entry partner): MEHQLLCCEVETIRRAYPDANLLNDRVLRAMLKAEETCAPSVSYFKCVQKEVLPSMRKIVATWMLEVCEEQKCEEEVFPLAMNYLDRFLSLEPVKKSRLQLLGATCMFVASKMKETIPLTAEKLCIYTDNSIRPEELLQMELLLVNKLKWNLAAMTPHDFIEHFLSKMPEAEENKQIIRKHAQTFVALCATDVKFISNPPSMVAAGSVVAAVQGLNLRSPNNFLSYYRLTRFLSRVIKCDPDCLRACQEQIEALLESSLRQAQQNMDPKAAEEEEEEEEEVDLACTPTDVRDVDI
Chain of CDK6/D3 (Q00534 whole entry): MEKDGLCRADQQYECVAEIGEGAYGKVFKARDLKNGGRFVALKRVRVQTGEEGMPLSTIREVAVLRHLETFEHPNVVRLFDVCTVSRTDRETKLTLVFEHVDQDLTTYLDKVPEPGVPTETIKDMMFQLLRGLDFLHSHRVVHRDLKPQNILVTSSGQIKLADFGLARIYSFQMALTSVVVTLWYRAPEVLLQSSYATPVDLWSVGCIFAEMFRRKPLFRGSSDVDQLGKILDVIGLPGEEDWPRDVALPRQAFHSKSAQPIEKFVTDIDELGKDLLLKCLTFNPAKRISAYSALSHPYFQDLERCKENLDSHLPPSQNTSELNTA
Chain of CDK6/D3 (P30281 whole entry partner): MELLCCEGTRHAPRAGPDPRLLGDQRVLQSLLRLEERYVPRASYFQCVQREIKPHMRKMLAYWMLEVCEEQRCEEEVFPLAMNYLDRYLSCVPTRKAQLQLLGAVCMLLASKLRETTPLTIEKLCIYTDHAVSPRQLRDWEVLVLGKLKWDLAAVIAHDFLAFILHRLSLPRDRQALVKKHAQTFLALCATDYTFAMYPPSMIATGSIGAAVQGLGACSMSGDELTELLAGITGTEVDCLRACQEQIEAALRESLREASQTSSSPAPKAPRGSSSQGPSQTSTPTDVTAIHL
T3 sequence (P06493 whole entry): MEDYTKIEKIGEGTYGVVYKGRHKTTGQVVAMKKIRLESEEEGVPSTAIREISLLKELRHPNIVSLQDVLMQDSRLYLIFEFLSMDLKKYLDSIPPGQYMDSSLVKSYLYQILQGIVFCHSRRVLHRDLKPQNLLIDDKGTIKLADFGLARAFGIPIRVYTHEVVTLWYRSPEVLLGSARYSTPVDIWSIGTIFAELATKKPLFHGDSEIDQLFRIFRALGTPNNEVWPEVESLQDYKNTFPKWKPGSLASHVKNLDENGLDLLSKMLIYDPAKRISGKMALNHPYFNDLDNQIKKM

GI50 [1]	GI50 [2]	Ki [3]	GI50 [4]	GI50 [5]	GI50 [6]	Ki [7]	Ki [8]	Ki [9]	GI50 [10]	GI50 [11]	GI50 [12]	GI50 [13]	Ki [14]	Ki [15]	GI50 [16]	GI50 [17]	SMILES	other results
0.035 ± 0.008 µmol/L	0.218 ± 0.013 µmol/L	0.691 µM	0.075 ± 0.011 µM	0.274 ± 0.03 µmol/L	0.931 ± 0.269 µmol/L	0.73 µM	0.24 µM	0.42 µM	0.16 ± 0.052 µmol/L	0.087 ± 0.04 µmol/L	0.616 ± 0.086 µmol/L	0.08 ± 0.015 µmol/L	0.006 µM	1.71 µM	0.015 ± 0.006 µmol/L	0.156 ± 0.061 µmol/L	N[C@H]1CC[C@H](Nc2ncc(F)c(-c3cnc4ccc(NCc5ccc(F)cc5)cn34)n2)CC1 [Compound 7, (1r,4r)-N^1-(5-Fluoro-4-(6-((4-fluorobenzyl)amino)imidazo [1,2-a]pyridin-3-yl)pyrimidin-2-yl)cyclohexane-1,4-diamine]	–
0.418 ± 0.123 µmol/L	0.247 ± 0.014 µmol/L	2.62 µM	0.059 ± 0.008 µM	0.278 ± 0.032 µmol/L	0.049 ± 0.012 µmol/L	0.6 µM	0.43 µM	1.53 µM	0.153 ± 0.051 µmol/L	0.289 ± 0.098 µmol/L	0.834 ± 0.066 µmol/L	0.42 ± 0.07 µmol/L	0.008 µM	1.54 µM	0.019 ± 0.001 µmol/L	0.156 ± 0.05 µmol/L	Cc1cnc(N[C@H]2CC[C@H](N)CC2)nc1-c1cnc2ccc(-c3ccccc3)cn12 [Compound 10, (1r,4r)-N^1-(5-Methyl-4-(6-phenylimidazo[1,2-a]pyridin-3-yl)pyrimidin-2-yl)cyclohexane-1,4-diamine]	GI50 [18]: 0.202 ± 0.052 µmol/L
–	–	–	0.045 ± 0.004 µM	–	–	–	–	–	–	–	–	–	0.004 µM	–	–	–	N[C@H]1CC[C@H](Nc2ncc(F)c(-c3cnc4ccc(-c5ccc(C(=O)N6CCNCC6)cc5)cn34)n2)CC1 [Compound 117, (4-(3-(2-(((1r,4r)-4-Aminocyclohexyl)amino)-5-fluoropyrimidin-4-yl)imidazo[1,2-a]pyridin-6-yl)phenyl) (piperazin-1-yl)methanone]	remaining activity at 10 µM ([3]; compound at 10 μM, read-out: residual activity (%) at 10 μM CDK4D1): 0%; remaining activity at 10 µM ([7]; compound at 10 μM, read-out: residual activity (%) at 10 μM CDK7H): 5%; remaining activity at 10 µM ([8]; compound at 10 μM, read-out: residual activity (%) at 10 μM CDK2A): 4%; remaining activity at 10 µM ([9]; compound at 10 μM, read-out: residual activity (%) at 10 μM CDK1B): 10%; remaining activity at 10 µM ([15]; compound at 10 μM, read-out: residual activity (%) at 10 μM CDK6D3): 12%
